Source: patent US5525627A, “Esters of acyl carnitines with long-chain aliphatic alcohols and pharmaceutical compositions containing same having antimycotic activity” (Sigma-Tau Industrie Farmaceutiche Riunite S.p.A., priority 1992, dated 1996)
Like-named read-outs stand apart in the source and are kept apart here.

How the values were obtained:
Candida albicans (A 54) = assay: MIC for yeast and yeast-like strains; format: cell-based; details: 48 hours, 35° C., read-out: Minimal Inhibitory Concentration (MIC)
Experimental: (§1) The following strains were used (the number of strains is in brackets): Candida (13); Criptococcus (2); Saccharormyces (1); Torulopsis (1).
(§2) Yeast Nitrogen Base supplemented with 0.15% asparagine and 1.0% glucose (as carbon source) was the medium utilized in the assays.
(§3) This medium was buffered with 0.165 M 2-(N-morpholino) propane sulfonic acid (MOPS), a non-chelating buffer. […]
(§4) The inoculum was prepared from an overnight broth culture (a 48-hour culture only for Cryptococcus) in Sabouraud broth and appropriately diluted to yield a final suspension containing approximately 5.0×10^6 Colony Forming Units per ml (CFU/ml), when compared to the Mc Farland's standard control (BRAY W. E., Clinical Laboratory Methods, 5th Ed. C. V. MOSBY, St. Louis, Mo, 1957).
(§5) After further diluting (1:50), a […] volume of such fungal suspensions and an equal volume of the substance solutions were distributed into each well of a microtiter plate (96 wells, round bottom). Such a procedure eventually allowed for an "in vitro" antimycotic activity assay utilizing final fungal inocula of approximately 5.0×10^4 CFU/ml.

Candida albicans (Ca 2) = assay: MIC for yeast and yeast-like strains; format: cell-based; details: 48 hours, 35° C., read-out: Minimal Inhibitory Concentration (MIC)
Experimental: as §1, §2, §3, §4, §5

[1] = test system: Candida tropicalis (5705); assay: MIC for yeast and yeast-like strains; format: cell-based; details: 48 hours, 35° C., read-out: Minimal Inhibitory Concentration (MIC)
Experimental: as §1, §2, §3, §4, §5

[2] = test system: Cryptococcus neoformans (4711); assay: MIC for yeast and yeast-like strains; format: cell-based; details: 48 hours, 35° C., read-out: Minimal Inhibitory Concentration (MIC)
Experimental: as §1, §2, §3, §4, §5

[3] = test system: Torulopsis candida (D.S.); assay: MIC for yeast and yeast-like strains; format: cell-based; details: Suzukiozyma candida; 48 hours, 35° C.; read-out: Minimal Inhibitory Concentration (MIC)
Experimental: as §1, §2, §3, §4, §5

yeast-like fungi = assay: MIC / MFC for yeast-like fungi, all strains; format: cell-based, Candida, Cryptococcus, Saccharomyces, Torulopsis; details: read-out: Mean MIC values
Experimental: as §1, §2, §3, §4, §5
(§6) The minimal fungicidal concentration was evaluated by spot-transferring onto Petri dishes, containing Sabouraud agar, 0.01-ml volumes of all the samples showing no visible fungal growth.

[4] = test system: Aspergillus fumigatus (ATCC 28212); assay: MIC for filamentous fungi; format: cell-based; details: ATCC28212, read-out: Minimal Inhibitory Concentration (MIC)
Text: (§7) The following strains were used (the number of strains is in brackets): Aspergillus (5); Fusarium (1); Mucor (1); Penicillium (1).
(§8) The tested substances were: ST 712, ST 722, ST 982, ST 983, ST 1000, ST 1001, ST 1032, ST 1033, ST 1034, ST 1036, ST 1037, ST 1038, ST 1050, ST 1051, ST 1052, ST 1053. The assay medium was the same as the one used in the previous study. The conidia from 72-hour cultures in Sabouraud agar, collected by washing with Sabouraud medium and Tween 80 (one drop of Tween per 10 ml of medium), were utilized as inoculum (5.0×10^4 CFU/ml).
(§9) The assay was performed using the same procedure as described for yeast-like fungi.
(§10) Also the evaluation of MIC and MFC was as reported previously.

[5] = test system: Aspergillus niger (ATCC 16404); assay: MIC for filamentous fungi; format: cell-based; details: ATCC16404, read-out: Minimal Inhibitory Concentration (MIC)
Text: as §7, §8, §9, §10

Fusarium sp. (ISS 1) = assay: MIC for filamentous fungi; format: cell-based; details: read-out: Minimal Inhibitory Concentration (MIC)
Text: as §7, §8, §9, §10

Mucor mucedo (ATCC 7941) = assay: MIC for filamentous fungi; format: cell-based; details: ATCC7941, read-out: Minimal Inhibitory Concentration (MIC)
Text: as §7, §8, §9, §10

Penicillium sp. (1302) = assay: MIC for filamentous fungi; format: cell-based; details: read-out: Minimal Inhibitory Concentration (MIC)
Text: as §7, §8, §9, §10

filamentous fungi = assay: MIC / MFC for filamentous fungi, all strains; format: cell-based, Aspergillus, Fusarium, Mucor, Penicillium; details: read-out: Mean MIC values
Text: as §7, §8, §9, §10

Candida krusei (ISS 1) = assay: MIC for yeast and yeast-like strains; format: cell-based; details: Pichia kudriavzevii; 48 hours, 35° C.; read-out: Minimal Inhibitory Concentration (MIC)
Experimental: as §1, §2, §3, §4, §5

Candida albicans (ISS 1) = assay: MIC for yeast and yeast-like strains; format: cell-based; details: 48 hours, 35° C., read-out: Minimal Inhibitory Concentration (MIC)
Experimental: as §1, §2
(§11) This medium was buffered with 0.165 M 2-(N-morpholino) propane sulfonic acid (MOPS), a non-chelating buffer.
(§12) Antimicrob. Agents Cheroother. Aug. 34.8:1542-1545).
as §4, §5

Candida glabrata (ISS 1) = assay: MIC for yeast and yeast-like strains; format: cell-based; details: Nakaseomyces glabratus; 48 hours, 35° C.; read-out: Minimal Inhibitory Concentration (MIC)
Experimental: as §1, §2, §11, §12, §4, §5

[6] = test system: Candida guilliermondii (ISS 1); assay: MIC for yeast and yeast-like strains; format: cell-based; details: Meyerozyma guilliermondii; 48 hours, 35° C.; read-out: Minimal Inhibitory Concentration (MIC)
Experimental: as §1, §2, §11, §12, §4, §5

[7] = test system: Candida parapsilosis (ISS 1); assay: MIC for yeast and yeast-like strains; format: cell-based; details: Lodderomyces parapsilosis; 48 hours, 35° C.; read-out: Minimal Inhibitory Concentration (MIC)
Experimental: as §1, §2, §11, §12, §4, §5

[8] = test system: Candida tropicalis (ISS 1); assay: MIC for yeast and yeast-like strains; format: cell-based; details: 48 hours, 35° C., read-out: Minimal Inhibitory Concentration (MIC)
Experimental: as §1, §2, §11, §12, §4, §5

Candida albicans (562) = assay: MIC for yeast and yeast-like strains; format: cell-based; details: 48 hours, 35° C., read-out: Minimal Inhibitory Concentration (MIC)
Experimental: as §1, §2, §3, §4, §5

[9] = test system: Saccharomyces cerevisiae (ATCC 7752); assay: MIC for yeast and yeast-like strains; format: cell-based; details: ATCC7752, 48 hours, 35° C., read-out: Minimal Inhibitory Concentration (MIC)
Experimental: as §1, §2, §3, §4, §5

Candida albicans (PG) = assay: MIC and MFC for yeast and yeast-like strains; format: cell-based; details: 48 hours, 35° C., read-out: Minimal Inhibitory Concentration (MIC)
Experimental: as §1, §2, §11, §12, §4, §5, §6

[10] = test system: Candida albicans (ATCC 2091); assay: MIC for yeast and yeast-like strains; format: cell-based; details: ATCC2091, 48 hours, 35° C., read-out: Minimal Inhibitory Concentration (MIC)
Experimental: as §1, §2, §11, §12, §4, §5

[11] = test system: Candida pseudotropicalis (EC 1); assay: MIC for yeast and yeast-like strains; format: cell-based; details: Kluyveromyces marxianus; 48 hours, 35° C.; read-out: Minimal Inhibitory Concentration (MIC)
Experimental: as §1, §2, §11, §12, §4, §5

[12] = test system: Cryptococcus neoformans (ISS 1); assay: MIC for yeast and yeast-like strains; format: cell-based; details: 48 hours, 35° C., read-out: Minimal Inhibitory Concentration (MIC)
Experimental: as §1, §2, §11, §12, §4, §5

[13] = test system: Aspergillus fumigatus (1/A); assay: MIC for filamentous fungi; format: cell-based; details: read-out: Minimal Inhibitory Concentration (MIC)
Text: as §7, §8, §9, §10

[14] = test system: Aspergillus fumigatus (2/A); assay: MIC for filamentous fungi; format: cell-based; details: read-out: Minimal Inhibitory Concentration (MIC)
Text: as §7, §8, §9, §10

[15] = test system: Aspergillus fumigatus (C/1); assay: MIC for filamentous fungi; format: cell-based; details: read-out: Minimal Inhibitory Concentration (MIC)
Text: as §7, §8, §9, §10

SMILES	MIC (Candida albicans (A 54))	MIC (Candida albicans (Ca 2))	MIC [1]	MIC [2]	MIC [3]	MIC [4]	MIC [5]	MIC (Fusarium sp. (ISS 1))	MIC (Mucor mucedo (ATCC 7941))	MIC (Penicillium sp. (1302))	MIC (yeast-like fungi; versus susceptible strains)	MIC (filamentous fungi; versus susceptible strains)	MIC (Candida krusei (ISS 1))	MIC (Candida albicans (ISS 1))	MIC (Candida glabrata (ISS 1))	MIC [6]	MIC [7]	MIC [8]	also measured
CCCCCCCCCCCOC(=O)C[C@H](C[N+](C)(C)C)OC(=O)CCCCCCCCCC [ST 982]	> 100 µg/mL	> 100 µg/mL	> 100 µg/mL	> 100 µg/mL	> 100 µg/mL	> 100 µg/mL	> 100 µg/mL	> 100 µg/mL	> 100 µg/mL	> 100 µg/mL	–	–	–	–	–	–	–	–	MIC (yeast-like fungi): > 100 µg/mL; MIC (filamentous fungi): > 100 µg/mL
CCCCCCCCCCCCCCCC(=O)O[C@H](CC(=O)OCCCCCCCCCCC)C[N+](C)(C)C [ST 983]	> 100 µg/mL	> 100 µg/mL	> 100 µg/mL	> 100 µg/mL	> 100 µg/mL	> 100 µg/mL	> 100 µg/mL	> 100 µg/mL	> 100 µg/mL	> 100 µg/mL	> 100 µg/mL	> 100 µg/mL	–	–	–	–	–	–	–
CCCCCCCCCCCOC(=O)C[C@H](C[N+](C)(C)C)OC(=O)CCCCCCC [ST 1000]	6.25 µg/mL	1.56 µg/mL	–	1.56 µg/mL	6.25 µg/mL	3.12 µg/mL	3.12 µg/mL	3.12 µg/mL	6.25 µg/mL	3.12 µg/mL	4.21 µg/mL	3.76 µg/mL	1.56 µg/mL	3.12 µg/mL	6.25 µg/mL	6.25 µg/mL	6.25 µg/mL	3.12 µg/mL	–
CCCCCCCCCCCCCCCCOC(=O)C[C@H](C[N+](C)(C)C)OC(=O)CC(C)C [ST 1001]	3.12 µg/mL	3.12 µg/mL	6.25 µg/mL	1.56 µg/mL	6.25 µg/mL	6.25 µg/mL	12.5 µg/mL	12.5 µg/mL	> 100 µg/mL	6.25 µg/mL	6.24 µg/mL	7.03 µg/mL	6.25 µg/mL	12.5 µg/mL	6.25 µg/mL	6.25 µg/mL	6.25 µg/mL	12.5 µg/mL	MIC (Candida albicans (562)): 3.12 µg/mL; MIC [9]: 6.25 µg/mL; MIC (Candida albicans (PG)): 6.25 µg/mL; MIC [10]: 6.25 µg/mL; MIC [11]: 12.5 µg/mL; MIC [12]: 3.12 µg/mL; MIC [13]: 6.25 µg/mL; MIC [14]: 6.25 µg/mL; MIC [15]: 6.25 µg/mL
